Data taken from ChEMBL document CHEMBL4414672, “Synthesis of certain benzothieno[3,2-d]pyrimidine derivatives as a selective SIRT2 inhibitors” (Eur J Med Chem, 2020).

Legend:
Assay type in all cases: functional
SNB-19 = assay: Growth inhibition of human SNB19 cells at 10^-5 M incubated for 48 hrs by sulforhodamine B assay; conditions: SNB-19, 48 h, read-out: GI
IGROV-1 = assay: Growth inhibition of human IGROV1 cells at 10^-5 M incubated for 48 hrs by sulforhodamine B assay; conditions: IGROV-1, 48 h, read-out: GI
SF-539 = assay: Growth inhibition of human SF539 cells at 10^-5 M incubated for 48 hrs by sulforhodamine B assay; conditions: SF-539, 48 h, read-out: GI
CCRF-CEM = assay: Growth inhibition of human CCRF-CEM cells at 10^-5 M incubated for 48 hrs by sulforhodamine B assay; conditions: read-out: GI
SK-MEL-2 = assay: Growth inhibition of human SK-MEL-2 cells at 10^-5 M incubated for 48 hrs by sulforhodamine B assay; conditions: SK-MEL-2, 48 h, read-out: GI
OVCAR-3 = assay: Growth inhibition of human OVCAR3 cells at 10^-5 M incubated for 48 hrs by sulforhodamine B assay; conditions: OVCAR-3, 48 h, read-out: GI
SK-OV-3 = assay: Growth inhibition of human SKOV3 cells at 10^-5 M incubated for 48 hrs by sulforhodamine B assay; conditions: SK-OV-3, 48 h, read-out: GI
ACHN = assay: Growth inhibition of human ACHN cells at 10^-5 M incubated for 48 hrs by sulforhodamine B assay; conditions: read-out: GI
SF-268 = assay: Growth inhibition of human SF268 cells at 10^-5 M incubated for 48 hrs by sulforhodamine B assay; conditions: SF-268, 48 h, read-out: GI
HCT-116 = assay: Growth inhibition of human HCT116 cells at 10^-5 M incubated for 48 hrs by sulforhodamine B assay; conditions: HCT-116, 48 h, read-out: GI
OVCAR-4 = assay: Growth inhibition of human OVCAR4 cells at 10^-5 M incubated for 48 hrs by sulforhodamine B assay; conditions: OVCAR-4, 48 h, read-out: GI
SF-295 = assay: Growth inhibition of human SF295 cells at 10^-5 M incubated for 48 hrs by sulforhodamine B assay; conditions: SF-295, 48 h, read-out: GI
NCI/ADR-RES = assay: Growth inhibition of human NCI/ADR-RES cells at 10^-5 M incubated for 48 hrs by sulforhodamine B assay; conditions: read-out: GI
Malme-3M = assay: Growth inhibition of human MALME-3M cells at 10^-5 M incubated for 48 hrs by sulforhodamine B assay; conditions: read-out: GI
HOP-92 = assay: Growth inhibition of human HOP92 cells at 10^-5 M incubated for 48 hrs by sulforhodamine B assay; conditions: HOP-92, 48 h, read-out: GI
NCI-H460 = assay: Growth inhibition of human NCI-H460 cells at 10^-5 M incubated for 48 hrs by sulforhodamine B assay; conditions: NCI-H460, 48 h, read-out: GI
HCT-15 = assay: Growth inhibition of human HCT15 cells at 10^-5 M incubated for 48 hrs by sulforhodamine B assay; conditions: HCT-15, 48 h, read-out: GI
SK-MEL-5 = assay: Growth inhibition of human SK-MEL-5 cells at 10^-5 M incubated for 48 hrs by sulforhodamine B assay; conditions: SK-MEL-5, 48 h, read-out: GI
OVCAR-8 = assay: Growth inhibition of human OVCAR8 cells at 10^-5 M incubated for 48 hrs by sulforhodamine B assay; conditions: OVCAR-8, 48 h, read-out: GI
EKVX = assay: Growth inhibition of human EKVX cells at 10^-5 M incubated for 48 hrs by sulforhodamine B assay; conditions: read-out: GI
T47D = assay: Growth inhibition of human T47D cells at 10^-5 M incubated for 48 hrs by sulforhodamine B assay; conditions: read-out: GI
NCI-H23 = assay: Growth inhibition of human NCI-H23 cells at 10^-5 M incubated for 48 hrs by sulforhodamine B assay; conditions: NCI-H23, 48 h, read-out: GI
NCI-H522 = assay: Growth inhibition of human NCI-H522 cells at 10^-5 M incubated for 48 hrs by sulforhodamine B assay; conditions: NCI-H522, 48 h, read-out: GI
KM12 = assay: Growth inhibition of human KM12 cells at 10^-5 M incubated for 48 hrs by sulforhodamine B assay; conditions: KM12, 48 h, read-out: GI
K562 = assay: Growth inhibition of human K562 cells at 10^-5 M incubated for 48 hrs by sulforhodamine B assay; conditions: K562, 48 h, read-out: GI
COLO 205 = assay: Growth inhibition of human COLO205 cells at 10^-5 M incubated for 48 hrs by sulforhodamine B assay; conditions: COLO 205, 48 h, read-out: GI
SW-620 = assay: Growth inhibition of human SW620 cells at 10^-5 M incubated for 48 hrs by sulforhodamine B assay; conditions: SW-620, 48 h, read-out: GI
PC-3 = assay: Growth inhibition of human PC3 cells at 10^-5 M incubated for 48 hrs by sulforhodamine B assay; conditions: PC-3, 48 h, read-out: GI
U-251 = assay: Growth inhibition of human U251 cells at 10^-5 M incubated for 48 hrs by sulforhodamine B assay; conditions: U-251, 48 h, read-out: GI
NCI-H322M = assay: Growth inhibition of human NCI-H322M cells at 10^-5 M incubated for 48 hrs by sulforhodamine B assay; conditions: read-out: GI
SN12C = assay: Growth inhibition of human SN12C cells at 10^-5 M incubated for 48 hrs by sulforhodamine B assay; conditions: read-out: GI
LOX IMVI = assay: Growth inhibition of human LOXIMVI cells at 10^-5 M incubated for 48 hrs by sulforhodamine B assay; conditions: read-out: GI
SNB-75 = assay: Growth inhibition of human SNB75 cells at 10^-5 M incubated for 48 hrs by sulforhodamine B assay; conditions: SNB-75, 48 h, read-out: GI
M14 = assay: Growth inhibition of human M14 cells at 10^-5 M incubated for 48 hrs by sulforhodamine B assay; conditions: M14, 48 h, read-out: GI
A549 = assay: Growth inhibition of human A549/ATCC cells at 10^-5 M incubated for 48 hrs by sulforhodamine B assay; conditions: A549, 48 h, read-out: GI
MDA-MB-435 = assay: Growth inhibition of human MDA-MB-435 cells at 10^-5 M incubated for 48 hrs by sulforhodamine B assay; conditions: MDA-MB-435, 48 h, read-out: GI
TK-10 = assay: Growth inhibition of human TK10 cells at 10^-5 M incubated for 48 hrs by sulforhodamine B assay; conditions: TK-10, 48 h, read-out: GI
A498 = assay: Growth inhibition of human A498 cells at 10^-5 M incubated for 48 hrs by sulforhodamine B assay; conditions: A498, 48 h, read-out: GI
Hs-578T = assay: Growth inhibition of human Hs 578T cells at 10^-5 M incubated for 48 hrs by sulforhodamine B assay; conditions: read-out: GI

Compound `O=C1Nc2c(sc3ccc(Cl)cc23)C(c2ccc3ccccc3c2)N1` (stereo not drawn) has an inhibition of growth at 10 µM (SNB-19) of 2.49%, an inhibition of growth at 10 µM (IGROV-1) of 17.4% and an inhibition of growth at 10 µM (SF-539) of 3.67%. It also gave an inhibition of growth at 10 µM (CCRF-CEM) of -13.3%, an inhibition of growth at 10 µM (SK-MEL-2) of 0.12% and an inhibition of growth at 10 µM (OVCAR-3) of 3.83%. It also gave an inhibition of growth at 10 µM (SK-OV-3) of 16.8%, an inhibition of growth at 10 µM (ACHN) of 10.1% and an inhibition of growth at 10 µM (SF-268) of 6.94%. It also gave an inhibition of growth at 10 µM (HCT-116) of -4.42%, an inhibition of growth at 10 µM (OVCAR-4) of 3.19% and an inhibition of growth at 10 µM (SF-295) of 2.29%. The inhibition of growth at 10 µM (NCI/ADR-RES) was -2.33%, the inhibition of growth at 10 µM (Malme-3M) was 17.3% and the inhibition of growth at 10 µM (HOP-92) was 24.7%. The inhibition of growth at 10 µM (NCI-H460) was 2.77%, the inhibition of growth at 10 µM (HCT-15) was 1.48% and the inhibition of growth at 10 µM (SK-MEL-5) was 1.82%. The inhibition of growth at 10 µM (OVCAR-8) was 6.44%, the inhibition of growth at 10 µM (EKVX) was 16.5% and the inhibition of growth at 10 µM (T47D) was 24.2%. For the same compound, the inhibition of growth at 10 µM (NCI-H23) was 11.7%, the inhibition of growth at 10 µM (NCI-H522) was 11.9% and the inhibition of growth at 10 µM (KM12) was -4.05%. For the same compound, the inhibition of growth at 10 µM (K562) was 14%, the inhibition of growth at 10 µM (COLO 205) was -6.54% and the inhibition of growth at 10 µM (SW-620) was 1.75%. For the same compound, the inhibition of growth at 10 µM (PC-3) was 7.25%, the inhibition of growth at 10 µM (U-251) was 1.75% and the inhibition of growth at 10 µM (NCI-H322M) was 9.44%. For the same compound, the inhibition of growth at 10 µM (SN12C) was 10.9%, the inhibition of growth at 10 µM (LOX IMVI) was -0.62% and the inhibition of growth at 10 µM (SNB-75) was 21.5%. The inhibition of growth at 10 µM (M14) was 6.72%, the inhibition of growth at 10 µM (A549) was 4.41% and the inhibition of growth at 10 µM (MDA-MB-435) was -8.72%. The inhibition of growth at 10 µM (TK-10) was 15.4%, the inhibition of growth at 10 µM (A498) was 15.2% and the inhibition of growth at 10 µM (Hs-578T) was 3.46%.
For `O=C1CC(=O)N(C2=Nc3c(sc4ccc(Cl)cc34)C(c3cccc([N+](=O)[O-])c3)N2)N1` (stereo not drawn), the inhibition of growth at 10 µM (SNB-19) was -9.31%, the inhibition of growth at 10 µM (IGROV-1) was 20.8% and the inhibition of growth at 10 µM (SF-539) was 4.39%. It also gave an inhibition of growth at 10 µM (CCRF-CEM) of -32.1%, an inhibition of growth at 10 µM (SK-MEL-2) of -3.18% and an inhibition of growth at 10 µM (OVCAR-3) of -6.5%. The inhibition of growth at 10 µM (SK-OV-3) was 1.27%, the inhibition of growth at 10 µM (ACHN) was -11.9% and the inhibition of growth at 10 µM (SF-268) was -5.71%. It also gave an inhibition of growth at 10 µM (HCT-116) of 0.7%, an inhibition of growth at 10 µM (OVCAR-4) of -11.5% and an inhibition of growth at 10 µM (SF-295) of 0.3%. For the same compound, the inhibition of growth at 10 µM (NCI/ADR-RES) was -2.89%, the inhibition of growth at 10 µM (Malme-3M) was -4.33% and the inhibition of growth at 10 µM (HOP-92) was -17.6%. The inhibition of growth at 10 µM (NCI-H460) was 2.81%, the inhibition of growth at 10 µM (HCT-15) was -3.4% and the inhibition of growth at 10 µM (SK-MEL-5) was 5.38%. It also gave an inhibition of growth at 10 µM (OVCAR-8) of -4.71%, an inhibition of growth at 10 µM (EKVX) of 21.9% and an inhibition of growth at 10 µM (T47D) of 20.9%. The inhibition of growth at 10 µM (NCI-H23) was 14.7%, the inhibition of growth at 10 µM (NCI-H522) was 9.63% and the inhibition of growth at 10 µM (KM12) was -3.57%. For the same compound, the inhibition of growth at 10 µM (K562) was 0.75%, the inhibition of growth at 10 µM (COLO 205) was -8.39% and the inhibition of growth at 10 µM (SW-620) was -6.45%. The inhibition of growth at 10 µM (PC-3) was 2.78%, the inhibition of growth at 10 µM (U-251) was -10.9% and the inhibition of growth at 10 µM (NCI-H322M) was 2.7%. The inhibition of growth at 10 µM (SN12C) was 18.3%, the inhibition of growth at 10 µM (LOX IMVI) was 2.94% and the inhibition of growth at 10 µM (SNB-75) was 8.27%. The inhibition of growth at 10 µM (M14) was -11.3%, the inhibition of growth at 10 µM (A549) was -4.87% and the inhibition of growth at 10 µM (MDA-MB-435) was -10.2%. The inhibition of growth at 10 µM (TK-10) was -11.9%, the inhibition of growth at 10 µM (A498) was 6.96% and the inhibition of growth at 10 µM (Hs-578T) was 5.51%.
